Data: ChEMBL document CHEMBL4257563, “Recent Advances in the Medicinal Chemistry of Liver X Receptors” (J Med Chem, 2018)
Where a chain is given by its changes, count along the chain named. Blank lines part the entries; values can stand above or below the molecule they belong to.

Experiments:
Cynomolgus monkey [1] = assay: In vivo transactivation in po dosed cynomolgus monkey blood assessed as induction ABCG1 mRNA expression after 24 hrs by PCR analysis; type: functional, organism-based; settings: Macaca fascicularis
[2] = Plasma concentration in cynomolgus monkey at 1 mg/kg, po after 48 hrs by LC-MS analysis; type: ADME, organism-based, Macaca fascicularis
[3] = Tmax in cynomolgus monkey at 1 mg/kg, po by LC-MS analysis; type: ADME, organism-based, Macaca fascicularis; settings: in vivo
[4] = Cmax in cynomolgus monkey at 1 mg/kg, po by LC-MS analysis; type: ADME, organism-based, Macaca fascicularis; set-up: dose 1 mg/kg, route oral; settings: in vivo
Cynomolgus monkey [5] = assay: In vivo transactivation of LXRbeta in cynomolgus monkey assessed as induction of ABCG1 expression at 1 mg/kg, po by PCR analysis; type: functional, Macaca fascicularis
Cynomolgus monkey [6] = assay: Increase in plasma triglycerides in orally dosed cynomolgus monkey; type: functional, Macaca fascicularis
Cynomolgus monkey [7] = assay: Increase in plasma LDL cholesterol in orally dosed cynomolgus monkey; type: functional, Macaca fascicularis
Homo sapiens = species on record: Homo sapiens; assay: Toxicity in human assessed as decrease in mean neutrophil count at 15 mg after 7 days relative to baseline control; type: organism-based; set-up: scale not given: the % may be the effect or the level left; settings: in vivo, 168 h
[8] = biological target: T1, Oxysterols receptor LXR-alpha (Homo sapiens, UniProt Q13133); assay: Agonist activity at human LXRalpha expressed in HEK293 cells after 24 hrs by One-Glo luciferase reporter gene assay; type: cell-based
T1 sequence (Q13133 whole entry): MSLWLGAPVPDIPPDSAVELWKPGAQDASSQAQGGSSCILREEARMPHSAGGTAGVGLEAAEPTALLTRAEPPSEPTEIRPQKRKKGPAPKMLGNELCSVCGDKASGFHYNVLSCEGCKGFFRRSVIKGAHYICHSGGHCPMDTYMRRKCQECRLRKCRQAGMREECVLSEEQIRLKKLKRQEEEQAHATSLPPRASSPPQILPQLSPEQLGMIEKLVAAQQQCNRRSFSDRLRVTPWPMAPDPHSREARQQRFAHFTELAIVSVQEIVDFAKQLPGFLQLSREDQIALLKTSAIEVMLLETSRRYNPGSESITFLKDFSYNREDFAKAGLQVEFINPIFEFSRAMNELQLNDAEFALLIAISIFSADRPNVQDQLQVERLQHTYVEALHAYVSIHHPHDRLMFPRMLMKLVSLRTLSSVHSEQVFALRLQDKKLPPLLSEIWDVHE

[9] = biological target: T2, Oxysterols receptor LXR-alpha (Homo sapiens) (UniProt Q13133); assay: Agonist activity at human LXRalpha expressed in HEK293 cells after 24 hrs by One-Glo luciferase reporter gene assay relative to TO901317; type: cell-based
T2 sequence (whole entry): T1 sequence (Q13133 whole entry)

[10] = biological target: T3, Oxysterols receptor LXR-beta (Homo sapiens, UniProt P55055); assay: Inverse agonist activity at LXRbeta (unknown origin) expressed in HEK293 cells 24 hrs by Dual-Glo luciferase assay; type: cell-based
T3 sequence (P55055 whole entry): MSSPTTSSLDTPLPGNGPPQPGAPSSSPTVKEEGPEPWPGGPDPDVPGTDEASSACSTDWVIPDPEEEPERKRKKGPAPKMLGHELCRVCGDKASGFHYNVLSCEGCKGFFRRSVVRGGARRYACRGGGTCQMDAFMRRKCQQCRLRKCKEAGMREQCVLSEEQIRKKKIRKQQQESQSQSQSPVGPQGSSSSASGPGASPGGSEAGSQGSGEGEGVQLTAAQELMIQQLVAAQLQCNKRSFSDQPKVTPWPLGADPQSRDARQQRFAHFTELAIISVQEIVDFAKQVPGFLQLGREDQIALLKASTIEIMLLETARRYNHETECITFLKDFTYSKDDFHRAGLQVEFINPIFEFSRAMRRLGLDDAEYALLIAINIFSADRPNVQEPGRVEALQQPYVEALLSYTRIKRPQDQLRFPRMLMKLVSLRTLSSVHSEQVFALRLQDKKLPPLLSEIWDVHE

[11] = biological target: T1, Oxysterols receptor LXR-alpha; assay: Inverse agonist activity at LXRalpha (unknown origin) expressed in HEK293 cells 24 hrs by Dual-Glo luciferase assay; type: cell-based
Mus musculus = assay: Reduction in hepatic collagen deposition in mouse at 30 mg/kg, ip for 30 days; type: functional; settings: 720 h
[12] = system: T4, Oxysterols receptor LXR-alpha (Homo sapiens), Q13133 [R305G]; assay: Agonist activity at human GAL-tagged LXRbeta-LBD R305G mutant transfected in HEK293T cells assessed as co-activator recruitment using TRAP220 as co-activator by TR-FRET assay relative to TO901317; type: cell-based
T4 sequence (whole entry): T1 sequence (Q13133 whole entry) with R305G

[13] = system: T4, Oxysterols receptor LXR-alpha (Homo sapiens), Q13133 [R305G]; assay: Agonist activity at human GAL-tagged LXRbeta-LBD R305G mutant transfected in HEK293T cells assessed as co-activator recruitment using NCoR as co-repressor by TR-FRET assay relative to TO901317; type: cell-based
[14] = biological target: T5, Oxysterols receptor LXR-beta (Homo sapiens) (UniProt P55055); assay: Agonist activity at human GAL-tagged LXRbeta-LBD F271A mutant transfected in HEK293T cells assessed as co-activator recruitment using D22 as co-activator by TR-FRET assay relative to TO901317; type: cell-based
T5 sequence (whole entry): T3 sequence (P55055 whole entry)

[15] = biological target: T5, Oxysterols receptor LXR-beta (Homo sapiens); assay: Agonist activity at human GAL-tagged LXRbeta-LBD F271A mutant transfected in HEK293T cells assessed as co-repressor recruitment using SMRT as co-repressor by TR-FRET assay relative to TO901317; type: cell-based
[16] = biological target: T1, Oxysterols receptor LXR-alpha; assay: Agonist activity at human LXRalpha-LBD (182 to 447 amino acids) expressed in HEK293T cells by luciferase reporter gene assay; type: cell-based
[17] = biological target: T3, Oxysterols receptor LXR-beta; assay: Agonist activity at human LXRbeta-LBD (196 to 461 amino acids) expressed in HEK293T cells by luciferase reporter gene assay; type: cell-based
[18] = biological target: T3, Oxysterols receptor LXR-beta; assay: Agonist activity at human full length LXRbeta expressed in African green monkey CV-1 cells co-expressing human pCMX/RXRalpha after 20 hrs by luciferase reporter gene assay; type: cell-based
[19] = biological target: T3, Oxysterols receptor LXR-beta; assay: Agonist activity at GAL4-tagged human LXRbeta LBD expressed in HEK293T cells after 12 hrs by luciferase reporter gene assay; type: cell-based

- EC50 (Cynomolgus monkey [1]): 610 nM
- concentration at 48 h [2]: 154 nM
- Tmax [3]: 2 h
- Cmax [4]: 2230 nM
Compound: CC(C)(O)c1cn(-c2ccc(-c3cccc(S(C)(=O)=O)c3)cc2)c(C(C)(C)c2ccccc2Cl)n1 [BMS-779788]
- fold change (FC) (Cynomolgus monkey [5]): 4.7
- fold change (FC) (Cynomolgus monkey [6]): 29
- fold change (FC) (Cynomolgus monkey [7]): 12

Compound: CC(C)(O)c1cn(-c2ccc(-c3cc(F)c(CO)c(S(C)(=O)=O)c3)cc2F)c(C(C)(C)c2c(Cl)cccc2Cl)n1 [BMS-852927]
- Activity (Homo sapiens): 47%

Compound: C[C@H](CCC(=O)N(C)C)[C@H]1CC[C@H]2[C@@H]3CC=C4C[C@@H](O)CC[C@]4(C)[C@H]3CC[C@]12C
- EC50 [8]: 422 nM
- Emax [9]: 45%

- IC50 [10]: 43 nM
- IC50 [11]: 214 nM
Compound: CCOC(=O)c1ccc(CN(Cc2ccc(-c3cccc(S(C)(=O)=O)c3)cc2)S(=O)(=O)c2c(C)cc(C)cc2C)o1
- inhibition in vivo at 30 mg/kg (Mus musculus): 90%

Compound: COC1CCN(C(=O)CC[C@@H](C)[C@H]2CC[C@H]3[C@@H]4CC=C5C[C@@H](O)CC[C@]5(C)[C@H]4CC[C@]23C)CC1
- EC50 [8]: 230 nM
- Emax [9]: 58%

- Activity [12]: 18%
- Activity [13]: 31%
- Activity [14]: 13%
- Activity [15]: 23%
- EC50 [16]: 150 nM
- EC50 [17]: 530 nM
Compound: CN(CC(=O)Nc1ccc(F)c(F)c1F)C(=O)c1ccc2c(c1)OCCO2

- EC50 [18]: 108 nM
Compound: CS(=O)(=O)c1cccc(-c2ccc(-c3cc(C(F)(F)F)nn3-c3ccccc3Cl)s2)c1

- EC50 [19]: 720 nM
Compound: Cc1c(C(=O)OC(C)C(=O)N2CCNC2=O)oc2cc(F)ccc12 (stereo not drawn)
